The supplement of paper PMC10307832

Key:
Assay in all cases: relative viability (nuclei count vs DMSO), 5 days (fraction); higher = more cells survive
KIN001-266 + AZD7762 = compound: CCN1CCC(CC1)N2C=C(N=N2)CNC3=CC4=C(C(=CN=C4C(=C3)Cl)C#N)NC5=CC(=C(C=C5)F)Cl [KIN001-266] + NC(=O)Nc1cc(-c2cccc(F)c2)sc1C(=O)N[C@H]1CCCNC1 [AZD7762] (partner 0.2 µM)
Procedure, shortened: (§1)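 One day after seeding in 1536-well plates, lung cancer cell lines were dosed by pin tool. Dosing was either single-drug or a fixed anchor-drug dose plus five library-drug doses (not always all listed) in √10 steps. After 5 days, nuclei were stained in one fix-and-stain step and counted on 4× images, and relative viability is the nuclei count of treated wells over that of vehicle wells, given as the median of duplicate plates.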

KIN001-266 + Palbociclib = compound: CCN1CCC(CC1)N2C=C(N=N2)CNC3=CC4=C(C(=CN=C4C(=C3)Cl)C#N)NC5=CC(=C(C=C5)F)Cl [KIN001-266] + CC(=O)c1c(C)c2cnc(Nc3ccc(N4CCNCC4)cn3)nc2n(C2CCCC2)c1=O [Palbociclib] (partner 0.5 µM)
Procedure, shortened: as §1

KIN001-266 + Crizotinib = compound: CCN1CCC(CC1)N2C=C(N=N2)CNC3=CC4=C(C(=CN=C4C(=C3)Cl)C#N)NC5=CC(=C(C=C5)F)Cl [KIN001-266] + C[C@@H](Oc1cc(-c2cnn(C3CCNCC3)c2)cnc1N)c1c(Cl)ccc(F)c1Cl [Crizotinib] (partner 1 µM)
Procedure, shortened: as §1

KIN001-266 + Vorinostat = compound: CCN1CCC(CC1)N2C=C(N=N2)CNC3=CC4=C(C(=CN=C4C(=C3)Cl)C#N)NC5=CC(=C(C=C5)F)Cl [KIN001-266] + O=C(CCCCCCC(=O)Nc1ccccc1)NO [Vorinostat] (partner 1 µM)
Procedure, shortened: as §1

Cell Line | relative viability (KIN001-266 + AZD7762; first compound 0.08 µM) | relative viability (KIN001-266 + AZD7762; first compound 0.253 µM) | relative viability (KIN001-266 + AZD7762; first compound 0.8 µM) | relative viability (KIN001-266 + AZD7762; first compound 2.53 µM) | relative viability (KIN001-266 + AZD7762; first compound 8 µM) | relative viability (KIN001-266 + Palbociclib; first compound 0.08 µM) | relative viability (KIN001-266 + Palbociclib; first compound 0.253 µM) | relative viability (KIN001-266 + Palbociclib; first compound 0.8 µM) | relative viability (KIN001-266 + Palbociclib; first compound 2.53 µM) | relative viability (KIN001-266 + Palbociclib; first compound 8 µM) | relative viability (KIN001-266 + Crizotinib; first compound 0.08 µM) | relative viability (KIN001-266 + Crizotinib; first compound 0.253 µM) | relative viability (KIN001-266 + Crizotinib; first compound 0.8 µM) | relative viability (KIN001-266 + Crizotinib; first compound 2.53 µM) | relative viability (KIN001-266 + Crizotinib; first compound 8 µM) | relative viability (KIN001-266 + Vorinostat; first compound 0.08 µM) | relative viability (KIN001-266 + Vorinostat; first compound 0.253 µM) | relative viability (KIN001-266 + Vorinostat; first compound 0.8 µM) | relative viability (KIN001-266 + Vorinostat; first compound 2.53 µM) | relative viability (KIN001-266 + Vorinostat; first compound 8 µM)
201T | 0.66 | 0.629 | 0.577 | 0.54 | 0.681 | 0.342 | 0.366 | 0.35 | 0.361 | 0.359 | 1.05 | 0.997 | 1.02 | 1.03 | 1.03 | 1.02 | 0.969 | 0.876 | 0.988 | 0.934
A549 |  |  |  |  |  |  |  |  |  |  | 0.771 | 0.733 | 0.83 | 0.739 | 0.693 |  |  |  |  | 
A-427 | 0.722 | 0.697 | 0.761 | 0.644 | 0.599 | 0.511 | 0.524 | 0.5 | 0.493 | 0.526 | 0.905 | 0.701 | 0.776 | 0.746 | 0.636 | 0.885 | 0.88 | 0.883 | 0.82 | 0.856
ABC-1 | 0.991 | 0.856 | 0.745 | 0.761 | 0.837 | 0.789 | 0.799 | 0.598 | 0.65 | 0.558 | 1.29 | 1.31 | 1.26 | 1.04 | 0.435 | 1.36 | 1.24 | 1.26 | 1.09 | 0.987
BEN | 0.729 | 0.705 | 0.676 | 0.539 | 0.709 | 0.439 | 0.495 | 0.511 | 0.467 | 0.507 | 0.756 | 0.815 | 0.948 | 0.811 | 1.04 | 0.607 | 0.531 | 0.601 | 0.559 | 0.635
CAL-12T | 0.633 | 0.639 | 0.574 | 0.642 | 0.606 | 0.44 | 0.492 | 0.438 | 0.359 | 0.419 | 0.562 | 0.565 | 0.693 | 0.589 | 0.686 | 0.728 | 0.662 | 0.903 | 0.73 | 0.895
COR-L23 |  |  |  |  |  | 0.334 | 0.28 | 0.281 | 0.294 | 0.22 | 0.751 | 0.832 | 0.642 | 0.561 | 0.416 | 0.397 | 0.46 | 0.62 | 0.422 | 0.237
COR-L 105 |  |  |  |  |  | 0.399 | 0.386 | 0.376 | 0.407 | 0.436 | 0.817 | 0.962 | 0.82 | 0.969 | 0.726 | 0.796 | 1.07 | 0.899 | 0.594 | 0.814
Calu-6 |  |  |  |  |  |  |  |  |  |  | 0.768 | 0.763 | 0.825 | 0.81 | 0.595 |  |  |  |  | 
ChaGo-K-1 | 0.858 | 0.924 | 0.856 | 0.811 | 0.585 | 0.949 | 1.01 | 0.851 | 0.84 | 0.428 | 1.09 | 1.12 |  | 1.09 | 0.982 | 0.792 | 0.718 | 0.737 | 0.645 | 0.535
EBC-1 |  |  |  |  |  |  |  |  |  |  | 0.183 | 0.205 | 0.205 | 0.203 | 0.185 |  |  |  |  | 
EKVX | 0.706 | 0.824 | 0.728 | 0.667 | 0.657 | 0.402 | 0.406 | 0.403 | 0.391 | 0.367 | 0.893 | 0.933 | 0.894 | 0.899 | 0.894 | 0.663 | 0.671 | 0.757 | 0.735 | 0.678
EMC-BAC-2 | 1.17 | 1.18 | 1.15 | 1.16 | 1.21 | 0.54 | 0.581 | 0.523 | 0.562 | 0.561 | 0.826 | 0.797 | 0.758 | 0.751 | 0.794 | 0.53 | 0.614 | 0.564 | 0.505 | 0.849
EPLC-272H | 0.304 | 0.212 | 0.191 | 0.185 | 0.371 | 0.348 | 0.354 | 0.275 | 0.307 | 0.312 | 0.939 | 0.862 | 0.752 | 0.943 | 0.656 | 0.417 | 0.662 | 0.621 | 0.429 | 0.384
H3255 | 0.846 | 0.731 | 0.792 | 0.908 | 0.8 | 0.336 | 0.3 | 0.307 | 0.311 | 0.282 | 0.883 | 0.874 | 0.777 | 0.811 | 0.71 | 0.882 | 0.839 | 0.792 | 0.721 | 0.836
HARA | 0.306 | 0.369 | 0.364 | 0.233 | 0.261 | 0.237 | 0.27 | 0.261 | 0.237 | 0.18 | 1.07 | 1.24 | 0.894 | 0.967 | 0.782 | 0.544 | 0.603 | 0.481 | 0.462 | 0.502
HCC-15 | 1.23 | 1.14 | 1.18 | 0.6 | 1.06 | 0.707 | 0.806 | 0.593 | 0.608 | 0.509 | 0.778 | 0.821 | 0.738 | 0.626 | 0.565 | 0.871 | 0.932 | 0.842 | 0.747 | 0.616
HCC-44 | 1.04 | 1.01 | 0.989 | 0.969 | 1.05 | 1.06 | 0.973 | 0.95 | 0.949 | 1.03 | 0.812 | 0.785 | 0.754 | 0.797 | 0.743 | 1.15 | 1.09 | 1.04 | 1.14 | 1.11
HCC-78 | 0.654 | 0.603 | 0.469 | 0.619 | 0.694 | 0.506 | 0.518 | 0.476 | 0.431 | 0.415 | 0.324 | 0.357 | 0.293 | 0.39 | 0.381 | 0.582 | 0.36 | 0.419 | 0.493 | 0.453
